Consider 6 molecules from patent publication US20240415869A1, “COMPOSITIONS, SYSTEMS, AND METHODS FOR TREATING CANCER USING TUMOR TREATING FIELDS (TTFIELDS) AND THIOREDOXIN/GLUTATHIONE INHIBITORS” (Novocure GmbH G, priority 2023, published 2024).

The structures appear in SMILES notation.

In one series the test system is mitochondrial toxicity. The following applies: cited from earlier work.
For series [1], the target named is T1, cytosolic thioredoxin reductase 1 (TXNRD1) (Homo sapiens, UniProt Q16881).
T1 sequence (Q16881 151-649 limits assumed): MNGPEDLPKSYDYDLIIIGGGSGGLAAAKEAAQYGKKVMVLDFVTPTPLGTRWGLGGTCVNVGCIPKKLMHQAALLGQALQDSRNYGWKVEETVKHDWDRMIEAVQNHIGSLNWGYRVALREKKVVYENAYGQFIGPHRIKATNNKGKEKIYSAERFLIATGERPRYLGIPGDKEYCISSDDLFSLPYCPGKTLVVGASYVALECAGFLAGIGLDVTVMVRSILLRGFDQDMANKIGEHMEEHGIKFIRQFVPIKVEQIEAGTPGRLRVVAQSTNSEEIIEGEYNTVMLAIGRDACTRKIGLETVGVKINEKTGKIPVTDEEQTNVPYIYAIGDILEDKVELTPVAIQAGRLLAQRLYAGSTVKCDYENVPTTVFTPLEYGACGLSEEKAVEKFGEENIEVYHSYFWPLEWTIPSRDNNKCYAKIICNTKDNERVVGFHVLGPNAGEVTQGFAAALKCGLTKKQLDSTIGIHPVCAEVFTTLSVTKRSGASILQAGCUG
As to conditions: irreversible inhibitor; cited from earlier work.

The target in a further series is T2, wild-type human TrxR1 (Homo sapiens, UniProt Q16881).
T2 sequence (Q16881 151-649 limits assumed): T1 sequence (Q16881 151-649 limits assumed)
The following applies: cited from earlier work.

The test system of another series is cancer cells. As to conditions: piperlongumine combined with erastin; cited from earlier work.
The target in series [2] is T3, glutathione peroxidase 4 (GPX4) (Homo sapiens, UniProt P36969).
T3 sequence (P36969 1-197): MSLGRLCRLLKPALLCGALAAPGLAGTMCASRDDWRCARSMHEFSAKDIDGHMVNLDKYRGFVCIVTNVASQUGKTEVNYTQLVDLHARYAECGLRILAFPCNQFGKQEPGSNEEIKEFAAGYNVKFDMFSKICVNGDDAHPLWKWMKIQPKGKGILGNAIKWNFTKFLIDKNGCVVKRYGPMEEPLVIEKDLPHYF
The following applies: selective and covalent inhibitor; cited from earlier work.

A further series relates to GSCs and GBM cell lines. As to conditions: lower IC50s for GSCs compared to GBM cell lines; cited from earlier work.
The next series relates to GBM cell lines and GSCs. The following applies: cited from earlier work.
Series [3] has as its system glioblastoma stem cells (GSCs). As to conditions: cited from earlier work.
The next series deals with GBM cell lines. As to conditions: cited from earlier work.
Series [4] has as its system glioblastoma stem cells (GSCs). Kind of series: Auranofin plus TTFields in glioblastoma stem cells (Example 2). It counts as cell-based. As to conditions: combined with TTFields. Here is the method: In vitro—To assess the effect of this trimodal therapy, GSCs are exposed to AU (auranofin, 0.50 μM), RT (3 Gy), TTFields, TTFields+AU, TTFields+RT, and the combination of all three treatments (AU+RT+TTFields). The GSCs are assessed for the following: (i) a neurosphere formation assay; (ii) ROS Intracellular levels; (iii) MitoTracker™ assessment of mitochondrial membrane potential; and (iv) TrXR1 and GSH activity assays.
In vivo—To further investigate the effect of ROS-inducing trimodal therapy (RT+AU+TTFields) in vivo, subcutaneous injections of GSCs 1123S and 528 stably transduced with luciferase are performed. GCSs are injected (3×10^5 cells 10 μl) to the right flank of mice. Treatment is started when tumors can be visualized by BLI upon injection of D-luciferin substrate. Blood is collected to monitor potential toxicities. The tumor is exposed to snap-freezing and then processed for WB and for tissue formalin fixation for further IHC analysis of p53, MGMT, and TrxR1-associated genes.

The next series has as its target T4, glutathione reductase (Homo sapiens, UniProt P00390).
T4 sequence (P00390 44-522): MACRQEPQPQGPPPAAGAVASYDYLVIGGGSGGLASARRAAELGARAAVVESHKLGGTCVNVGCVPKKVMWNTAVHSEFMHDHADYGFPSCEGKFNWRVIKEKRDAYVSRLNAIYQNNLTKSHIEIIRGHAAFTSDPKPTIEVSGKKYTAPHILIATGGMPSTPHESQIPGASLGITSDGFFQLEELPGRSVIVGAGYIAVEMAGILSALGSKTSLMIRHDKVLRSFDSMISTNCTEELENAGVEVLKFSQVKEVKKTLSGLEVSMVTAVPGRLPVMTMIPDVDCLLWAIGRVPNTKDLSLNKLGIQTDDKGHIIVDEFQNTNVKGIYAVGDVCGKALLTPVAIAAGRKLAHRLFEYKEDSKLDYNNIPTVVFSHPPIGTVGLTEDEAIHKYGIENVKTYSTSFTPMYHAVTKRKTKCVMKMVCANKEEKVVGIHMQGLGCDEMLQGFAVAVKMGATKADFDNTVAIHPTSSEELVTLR
The following applies: irreversible inhibitor; cited from earlier work.

Usually IC50 stands for the concentration needed to halve the response being measured. With `COc1ccc([N+](=O)[O-])c(S(=O)(=O)c2ccc(Cl)cc2)n1` [TRi-1], the mitochondrial toxicity result in the series with mitochondrial toxicity is reported as “little mitochondrial toxicity for anticancer therapy”. For the same molecule, in series [1], the IC50 is 12 nM.
For `O=c1c2ccccc2[se]n1CCn1[se]c2ccccc2c1=O` [Ethaselen, 1,2-[bis(1,2-benzisoselenazolone-3 (2H)-ketone)]ethane], on wild-type human TrxR1, the IC50 is 500 nM.
Turning to `COc1cc(/C=C/C(=O)N2CCC=CC2=O)cc(OC)c1OC` [piperlongumine], the “effect of combination over either treatment alone” value in the series with cancer cells is given as “synergistic effect”.
As usually defined, the EC50 is the concentration that produces a half-maximal response. As for `Cc1onc(C(=O)N2CCN(C(c3ccc(Cl)cc3)c3ccc(Cl)cc3)CC2)c1[N+](=O)[O-]` [ML-210], the EC50 in series [2] is 30 nM.
On to `CC(=O)OC[C@H]1O[C@@H]([S-])[C@H](OC(C)=O)[C@@H](OC(C)=O)[C@@H]1OC(C)=O.CCP(CC)CC.[Au+]` [Auranofin], for which the cell survival result in the series on GSCs and GBM cell lines was “decreased”. Besides, in the series with GBM cell lines and GSCs (GBM cell lines and GSCs, auranofin alone), the “intracellular ROS” value was “significantly increases”. Further, in the series with GBM cell lines and GSCs (GSCs, auranofin with RT), the “ROS, combination with radiation therapy” value was “synergistically increases”. Moreover, the neurosphere formation ability result in series [3] is listed as “decreased”. The clonogenic potential entry with GBM cell lines is reported as “decreased”. In addition, the “effect of combination of Auranofin and TTFields” value in series [4] is listed as “synergistic effect”.
Consider `N[C@@H](CCC(=O)N[C@@H](CSc1ccc([N+](=O)[O-])cc1[N+](=O)[O-])C(=O)NCC(=O)O)C(=O)O` [(2,4-Dinitrophenyl)glutathione, S-(2,4-Dinitrophenyl)glutathione], for which the Ki at glutathione reductase is 30000 nM.
